How the values were obtained:
[1] = Volume of distribution at steady state in ICR mouse; assay type: ADME, organism-based; details: in vivo, read-out: Vdss
[2] = Ratio of Cmax in brain to plasma in ICR mouse; assay type: ADME; details: brain and plasma
[3] = Clearance in ICR mouse; assay type: ADME, organism-based; details: in vivo
[4] = Half life in ICR mouse; assay type: ADME, organism-based; details: in vivo
[5] = Intrinsic clearance in human liver microsomes; assay type: ADME, Microsome
[6] = Intrinsic clearance in rat liver microsomes; assay type: ADME, Microsome
[7] = Clearance in Wistar rat; assay type: ADME, organism-based; details: in vivo
[8] = Volume of distribution at steady state in Wistar rat; assay type: ADME, organism-based; details: in vivo, read-out: Vdss
[9] = Clearance in Beagle dog; assay type: ADME, organism-based, Canis lupus familiaris; details: in vivo
[10] = Intrinsic clearance in mouse hepatic microsomes; assay type: ADME, Microsome; details: liver microsomes
[11] = Half life in Beagle dog; assay type: ADME, organism-based, Canis lupus familiaris; details: in vivo
[12] = Half life in Wistar rat; assay type: ADME, organism-based; details: in vivo
[13] = Volume of distribution at steady state in Beagle dog; assay type: ADME, organism-based, Canis lupus familiaris; details: in vivo, read-out: Vdss
[14] = Intrinsic clearance in dog hepatic microsomes; assay type: ADME, Canis lupus familiaris, Liver, Microsome

Row | SMILES | microsomal CLint [5] [µL/min/mg] | microsomal CLint [6] [µL/min/mg] | also measured
1 | CCc1cccc2c(-c3nsc(CN4CCCC4)n3)cn(CC3CCCCC3)c12.Cl | – | – | Vd [1]: 1.4 L/kg; Kp [2]: 0.05; clearance [3]: 28 mL/min/kg; half-life [4]: 1.2 h
2 | COCCN(C)Cc1csc(-c2cn(CC3CCCCC3)c3c(Cl)cccc23)n1 | 36 | 22 | –
3 | CN(CCO)Cc1csc(-c2cn(CC3CCOCC3)c3c(Cl)cccc23)n1 | < 16 | 167 | –
4 | CC(C)N(CCO)Cc1csc(-c2cn(CC3CCOCC3)c3c(Cl)cccc23)n1 | 161 | > 160 | clearance [7]: 127 mL/min/kg; Vd [1]: 11.3 L/kg; Vd [8]: 15 L/kg; Kp [2]: 3.9; clearance [9]: 28 mL/min/kg; microsomal CLint [10]: 176 µL/min/mg; half-life [11]: 3 h; clearance [3]: 159 mL/min/kg; half-life [12]: 1.6 h; Vd [13]: 5 L/kg; half-life [4]: 1.38 h; CL [14]: 0.131 mL/min/kg
5 | OC1CCN(Cc2csc(-c3cn(CC4CCOCC4)c4c(Cl)cccc34)n2)CC1 | 12 | 16 | –
6 | COC1CCN(Cc2csc(-c3cn(CC4CCOCC4)c4c(Cl)cccc34)n2)CC1 | 80.4 | > 270 | –
7 | Clc1cccc2c(-c3nc(CN4CCOCC4)cs3)cn(CC3CCOCC3)c12 | 97.9 | > 270 | –
8 | OCCN(CCO)Cc1csc(-c2cn(CC3CCOCC3)c3c(Cl)cccc23)n1 | 111 | > 270 | –
9 | CCc1sc(-c2cn(CC3CCOCC3)c3c(Cl)cccc23)nc1CN(CC)CCO | 114 | > 270 | –

Reference: ChEMBL document CHEMBL1759932, “Design, synthesis and structure-activity relationships of (indo-3-yl) heterocyclic derivatives as agonists of the CB1 receptor. Discovery of a clinical candidate” (Bioorg Med Chem Lett, 2011)
